In patent publication US20260008780A1, “SUBSTITUTED 3,4-DIHYDROISOQUINOLIN-1(2H)-ONE DERIVATIVES AND RELATED USES” (NodThera Limited, priority 2022, published 2026):

Each compound was assayed on IL-1β release upon NLRP3 activation in peripheral blood mononuclear cells (PBMC) (assay: PBMC IC50 Determination Assay). Conditions: Homo sapiens; PBMC from buffy coats, LPS 3 h, compound 30 min, then ATP (5 mM) or nigericin (10 μM) 1 h; IL-1β in media by ELISA (Protocol A) or HTRF (Protocol B).
Format: cell-based
Protocol: The compounds of the present disclosure were tested for their inhibitory activity against IL-1β release upon NLRP3 activation in peripheral blood mononuclear cells (PBMC).
Protocol A. PBMC were isolated from buffy coats by density gradient centrifugation on Histopaque-1077 (Sigma, cat no. 10771). Isolated cells were seeded into the wells of a 96-well plate and incubated for 3 h with lipopolysaccharide (LPS). Following medium exchange, the compounds of the present disclosure were added (a single compound per well) and the cells were incubated for 30 min. Next, the cells were stimulated either with ATP (5 mM) or nigericin (10 μM) for 1 h and the cell culture media from the wells were collected for further analysis.
The release of IL-1β into the media was determined by a quantitative detection of IL-1β in the media using an IL-1p enzyme-linked immunosorbent assay (ELISA) Ready-SET-Go!, eBioscience cat. No. 88-7261-88. Briefly, in a first step, high affinity binding plates (Corning, Costar 9018 or NUNC Maxisorp Cat No. 44-2404) were coated overnight at 4° C. with specific capture antibody included in the kit (anti-human IL-1β ref 14-7018-68). Subsequently, plates were blocked with blocking buffer for 1 h at room temperature (rt) and after washing with a buffer (PBS with 0.05% Tween-20) incubated with protein standard and culture media. After 2 h of incubation at rt, plates were washed and incubated with biotinylated detection antibody included in the kit (anti-human IL-1β Biotin ref. 33-7110-68) for 1 h at rt. Plates were washed and incubated with HRP-streptavidin for 30 min at rt and washed again. The signal was developed after addition of 3,3′,5,5′-tetramethylbenzidine-peroxidase (TMB) until colour appeared and the reaction was stopped by 2 M H2SO4. A microplate spectrophotometer (BioTek) was used to detect signals with 450 nm. The detection range of IL-1β ELISA was […].
Protocol B. PBMC were isolated from buffy coats by density gradient centrifugation on Histopaque-1077 (Sigma, cat no. 10771). Isolated cells were seeded into the wells (280,000 cells/well) of a 96-well plate and incubated for 3 h with lipopolysaccharide (LPS, 1 μg/mL diluted 1000× from a 1 mg/mL stock solution). The compounds of the present disclosure were added (a single compound per well) and the cells were incubated for 30 min. Next, the cells were stimulated with ATP (5 mM final concentration diluted 20× from a 100 mM stock solution) for 1 h and the cell culture media from the wells were collected for further analysis.
The release of IL-1β into the media was determined by quantitative detection of IL-1β in the media using HTRF®, CisBio cat. No. 62HIL1BPEH. Briefly, cell culture supernatant were dispensed directly into the assay plate containing antibodies labelled with the HTRF® donor and acceptor. A microplate spectrophotometer (BMG) was used to detect signals at 655 nm and 620 nm. The detection range of IL-1β HTRF® was 39-6500 μg/mL.
Compound `CCNc1nc2c(s1)C(=O)N(CC(=O)Nc1ncccn1)CC2C` (centres unmarked) [Compound 73, 2-(2-(Ethylamino)-7-methyl-4-oxo-6,7-dihydrothiazolo[5,4-c]pyridin-5(4H)-yl)-N-(pyrimidin-2-yl)acetamide] has an IC50 of 10000 to 50000 nM.
`CNc1cc2c(s1)C(=O)N(CC(=O)Nc1ncccn1)CC21CC1` [Compound 74, 2-(2′-(Methylamino)-7′-oxo-5′H-spiro[cyclopropane-1,4′-thieno[2,3-c]pyridin]-6′(7′H)-yl)-N-(pyrimidin-2-yl)acetamide] was tested, and the IC50 was 100 to 1000 nM.
In the case of `O=C(CN1CC2(CC2)c2cc(CC(F)F)sc2C1=O)Nc1ncccn1` [Compound 75, 2-(2′-(2,2-Difluoroethyl)-7′-oxo-5′H-spiro[cyclopropane-1,4′-thieno[2,3-c]pyridin]-6′(7′H)-yl)-N-(pyrimidin-2-yl)acetamide], the IC50 is reported as 1000 to 3000 nM.
`O=C(CN1CC2(CC2)c2cc(C3CC3)sc2C1=O)Nc1ncc(F)cn1` [Compound 76, 2-(2′-Cyclopropyl-7′-oxo-5′H-spiro[cyclopropane-1,4′-thieno[2,3-c]pyridin]-6′(7′H)-yl)-N-(5-fluoropyrimidin-2-yl)acetamide] gave an IC50 of 100 to 1000 nM.
For `C[C@@H]1CN(CC(=O)Nc2ncccn2)C(=O)c2sc(C3CC3)nc21` [Compound 77], the IC50 was 1000 to 3000 nM.
